Data reported in patent US11285144B2, “Use of CDK8 inhibitors to treat diseases of inflammation and autoimmunity” (THE BROAD INSTITUTE, INC., priority 2016, dated 2022).
“Also recorded” adds a separate entry of the source.

Tests used:
[1] = tested on: Zymosan A-stimulated BMDCs; experiment: Cytokine production by Zymosan A-stimulated BMDCs; type: cell-based, mouse; conditions: zymosan A-stimulated BMDCs
Description: Towards the goal of identifying new mechanisms of IL-10 regulation, 59,346 small molecules were screened for the ability to enhance IL-10 production by activated bone marrow-derived dendritic cells (BMDCs) using a high-throughput assay developed previously (Sundberg et al., PNAS 111:12468-12473, 2014). Compounds were derived from both commercial collections and structurally and skeletally diverse libraries prepared by diversity-oriented synthesis (DOS). More than 60 hit compounds were identified that reproducibly enhance IL-10 production in a concentration-dependent manner (Table 1). Three distinct chemotypes were prioritized for follow-up based on potency and an initial analysis of structure-activity relationship (SAR) with respect to core scaffold, stereochemistry and side chains (FIG. 2a).
(§1) The pyridinyl tetrahydroquinoline BRD6989 (10) emerged as a prioritized hit in the screen (FIG. 2a and Table 2). […] Thus, BRD6989 enhances IL-10 production in activated human and murine macrophages and dendritic cells by a mechanism that appears most pronounced following stimulation of toll-like receptors-7 (TLR7) and TLR8 by R848.

[2] = tested on: tubulin; experiment: Tubulin polymerization, cell-free assay; type: biochemical
Description: FIG. 4—DOS-derived IL-10 hit BRD0326 perturbs microtubule dynamics. (a) Chemical structure of BRD0326. […] (c) BRD0326's IL-10 enhancing activity depends on its stereochemistry (EC50's=mean of 2 independent experiments). (d) Transcriptional responses elicited by BRD0326 correlate with those induced by small molecule modulators of microtubule dynamics.

[3] = tested on: R848-stimulated BMDCs; experiment: Cytokine production by R848-stimulated BMDCs; type: cell-based, mouse
Description: as §1
(§2) Pre-treatment with these CDK8/19 inhibitors recapitulated the IL-10 potentiating activity of BRD6989 in both BMDCs (FIG. 9b) along with human DCs derived from two independent donors in the context of R848 stimulation (FIGS. 9c and 10a).

[4] = tested on: human, monocyte-derived DCs; experiment: IL-10 production in human monocyte-derived DCs stimulated with R848; type: cell-based
Description: as §1, §2

[5] = tested on: R848-stimulated BMDCs; experiment: IL-10 mRNA levels in BMDCs following R848 stimulation; type: cell-based, mouse; conditions: pre-treatment, then R848 stimulation
Protocol: FIG. 5—Cellular activities of the IL-10 hit BRD6989. […] (d) Effect of BRD6989 on IL-10 production in human DCs stimulated with R848 (each point corresponds to mean±S.D.; n=3 biological replicates from 1 independent experiment using cells derived from 1 donor). (e) Chemical structure of the pan-SIK inhibitor HG-9-91-01. (f) Effect of pre-treating BMDCs with HG-9-91-01 (0.5 μM) or BRD6989 (5 μM) on IL-10 mRNA levels following stimulation with R848 (each point corresponds to mean±S.D.; n=4 biological replicates from 1 independent experiment; *, P<0.05; ***, P<0.001 using unpaired, two-tailed Student's t test). Data from all panels is representative of at least 2 independent experiments.
Based on its ability to selectively potentiate IL-10 production by a mechanism that appears temporally distinct from CREB activation, BRD6989 was prioritized for MOA studies.

[6] = tested on: BMDCs stimulated with R848 or Zymosan A; experiment: Co-treatment of BMDCs with T-5224, cytokine production; type: cell-based, mouse; conditions: T-5224 100 μM
Protocol: FIG. 13—Modulation of c-Jun/AP-1 links CDK8 inhibition to enhanced IL-10 production. (a) CDK8 responsive signaling pathways in activated BMDMs as identified by the highly parallel reporter gene assay TF-Seq. Reporter data is integrated for time points between 15 min 4 hr from 1 independent experiment. Dashed lines correspond to FDR<0.05 as corrected by Benjamin-Hochberg testing. (b) Relative to all highly expressed genes, JunB binding sites are enriched among the subset of genes induced by CDK8 inhibition (see Online Methods). […] Data is representative of 2 independent experiments. […] Data is representative of 2 independent experiments. […] CpG, synthetic CpG-containing oligonucleotide; FLA, flagellin A; LPS, lipopolysaccharide; MDP, muramyldipeptide; Pam3cys, synthetic triacylated lipoprotein; poly(I:C), polyinosinic-polycytidylic acid; SeV, Sendai virus; TDB, trehalose-6,6-dibehenate.
FIG. 15—CDK8 inhibition enhances AP-1 activity during innate immune activation. (a) Time course of AP-1 reporter activity in BMDMs pre-treated with dCA (0.1 μM) or BRD6989 (5 μM) prior to stimulation with the indicated viruses or microbial ligands for the indicated time points (each point corresponds to TF-Seq reporter data derived from 1 independent experiment). […] Data is from 1 independent experiment. (c) Chemical structure of the c-Fos/AP-1 inhibitor T-5224. […] Data in panels (c,d) are representative of 2 independent experiments. CpG, synthetic CpG-containing oligonucleotide; FLA, flagellin; LPS, lipopolysaccharide; MDP, muramyldipeptide; Pam3cys, synthetic triacylated lipoprotein; Poly(I:C), polyinosinic-polycytidylic acid; SeV, Sendai virus; TDB, trehalose-6,6-dibehenate.
Given the presence of an AP1 consensus motif in IL-10 and evidence that potentiation of MAP kinase signaling can increase IL-10 production (Saraiva et al., Nat Rev Immunol 10:170-81, 2010; Wang et al., Nat Commun 5:3479, 2014; Na et al., Science Signaling 8:2015), it was hypothesized that increased AP-1 activity resulting from reduced c-Jun Ser243 phosphorylation may mediate activation of IL-10 following CDK8 inhibition.

With `CS(=O)(=O)N1[C@H](C#N)[C@H](c2ccc(C#Cc3cccc(F)c3)cc2)[C@H]1CO` [BRD0326] as the compound, how does the IL-10 production [1] read?
Its IL-10 production is “potentiates IL-10 production by Zymosan A-stimulated BMDCs to a similar degree as PGE2”.

And the “tubulin / microtubule polymerization” value [2]?
The value was “suppressed microtubule polymerization; also recorded: suppresses tubulin polymerization”.

Which results are given for `Cn1ncc2cc(-c3cnc(N)c(Cl)c3N3CCC4(CCNC4=O)CC3)ccc21` [CCT251921]?
IL-10 production [3]: recapitulate the IL-10 enhancing activity of BRD6989; IL-10 production [4]: recapitulate IL-10 potentiation by BRD6989

`COc1ccc(N(C(=O)Nc2c(C)cccc2C)c2cc(Nc3ccc(N4CCN(C)CC4)cc3)ncn2)c(OC)c1` [HG-9-91-01, reference compound] was tested. Which “IL-10 mRNA levels” value [5] did it give?
The value was “elevate Il-10 mRNA immediately following microbial stimulation without greatly extending the duration of this response”.

Which results are given for `O=C(O)CCc1cc(C(=O)c2ccc(OC3CCCC3)cc2O)ccc1OCc1ccc2c(=O)[nH]oc2c1` [T-5224]?
production of IL-6 or TNFα on co-incubation with dCA ([6]; R848): does not affect production of IL-6 or TNFα; IL-10 production on co-treatment with dCA ([6]; R848 or Zymosan A): suppressed IL-10 production; also recorded: suppresses the IL-10 enhancing activity of dCA; IL-10 increase induced by HG-9-91-01 on co-treatment ([6]; Zymosan A): did not affect; also recorded: does not affect up-regulation of IL-10 or suppression of IL-6

Which IL-10 production [3] does the source give for `CN(C)C/C=C/C(=O)Nc1ccc(C(=O)Nc2cccc(Nc3ncc(Cl)c(-c4c[nH]c5ccccc45)n3)c2)cc1` [THZ-1] here?
The IL-10 production was “not enhanced”.
